Source: patent US20040180943A1, “Oxazolone analogs as amyloid aggregation inhibitors and for the treatment of alzheimer's disease and disorders related to amyloidosis” (priority 2002, published 2004)
Values joined by “and” are separate entries in the source; they are usually repeats but may differ in a detail not shown here. Equal entries are not always repeated. Where two headings read alike, the source gives them in different places.

Assays:
Assay type in all cases: biochemical
Aβ(1-40) peptide = target: T1, Aβ(1-40) peptide (Homo sapiens, UniProt P05067); assay: BASSR (Beta-Amyloid Self-Seeding Radioassay), inhibitors of self-seeded amyloid fibril growth; conditions: 30 μM soluble Aβ(1-40) + 125I-labeled Aβ(1-40), pH 7.5, 37° C. for 3 to 5 hours, filtration
T1 construct: Soluble Aβ(1-40) peptide (Bachem, Torrance, Calif.); purchased Bachem, Torrance, Calif
Experimental: 1. BASSR (Beta-Amyloid Self-Seeding Radioassay)
An assay for inhibitors of self-seeded amyloid fibril growth
(§1) Assay Buffer—50 mM sodium phosphate, pH 7.5, 100 mM NaCl, 0.02% NaN3, 1 M urea (filter and store at 4° C.)
Soluble Aβ(1-40) peptide (Bachem, Torrance, Calif.)—2.2 mg/mL in deionized H2O (is stored in aliquots at −20° C.; is kept on ice when thawed) will self-seed after 1 week storage. Typically, the solution is stored until no lag phase is seen in the assay.
^125I-labeled Aβ(1-40)—150K to 350K cpm/μL in 100% acetonitrile—0.1% trifluoroacetic acid (TFA)—1% β-mercaptoethanol (aliquots stored at −20° C.). ^125I-labeled Aβ(1-40) is made in accordance with the procedure set forth by LeVine H., III, in Neurobiol. Aging, 1995;16:755, which is hereby incorporated by reference, or this reagent may be purchased from Amersham, Arlington Heights, Ill.
Final assay conditions: 30 μM soluble Aβ(1-40) in deionized water in assay buffer+20 K to 50 K cpm ^125I-labeled Aβ(1-40) per assay. Compound to be tested is dissolved in dimethylsulfoxide (DMSO), typically 5 to 50 mM stock, such that the final concentration of DMSO is <1% v/v in the assay.
Assay: Reaction mixture for 50 assays (on ice) is comprised of 0.1 to 0.2 μL of ^125I-labeled A^125I-labeled Aβ(1-40)+1 μL of soluble Aβ(1-40)+13.5 μL assay buffer per assay. The following are the amounts of the components of the reaction mixture sufficient for 50 assay wells.
1) The reaction mixture of above is prepared by mixing components and storing on ice.
2) 14.5 μL of the reaction mixture is pipetted into each of 50 wells on a polypropylene U-bottom 96-well microtiter plate on ice (Costar 3794).
(§2) 3) 1.7 μL of diluted compound to be tested is added to each well in a column of eight, including solvent control. Serial 3-fold dilutions from 1 mM (100 μM final) in assay buffer−urea=7 dilutions+zero. Each 96-well plate can therefore accommodate 11 samples+1 Congo Red control (0.039-5 μM final in 2-fold steps).
4) The plate with aluminum film (Beckman 538619) is sealed and incubated for 10 minutes on ice.
(§3) 5) The temperature is raised to 37° C. and incubated for 3 to 5 hours (depending on the lot of the peptide).
6) The aluminum film is removed and 200 μL/well of ice cold assay buffer with urea is added. The radiolabeled fibrils are collected by vacuum filtration through 0.2 μm pore size GVWP filters in 96-well plates (Millipore MAGV N22, Bedford, Mass.). The radioactivity of the filters is determined by using standard methods well-known to those skilled in the art.

Aβ (1-42) = target: T2, Aβ (1-42) (Homo sapiens, UniProt P05067); assay: Batym Assay (Aβ(1-42) aggregation, Thioflavin T fluorescence); conditions: Aβ 1-42 final concentration 100 μM, PBS pH 7.4, 37° C. for 1 day, ThT fluorescence
T2 construct: Required Aβ (1-42) (California Peptide) is dried from its hexafluoroisopropanol (HFIP) stock solution; purchased California Peptide
Experimental: Required Aβ (1-42) (California Peptide) is dried from its hexafluoroisopropanol (HFIP) stock solution. The Aβ (1-42) is dissolved in DMSO and then mixed with phosphate buffered saline (PBS) (pH 7.4). The mixed Aβ (1-42) solution is filtered with a GVWP 0.22 μm syringe filter (Millipore, Bedford, Mass.). The compound to be tested in DMSO (50 times concentrate) is put into each well (0.5 μL/well) of a 96-well plate. The Aβ(1-42) solution is added into each well (25 μL/well). The plate is centrifuged at 1000 g for 5 minutes and incubated at 37° C. for 1 day (Aβ 1-42; final concentration 100 μM).
After incubation Thioflavin T (ThT) (30 μM) solution in glycine-NaOH buffer (pH 8.5, 50 mM) is added into each well (250 μL/well), fluorescence is measured (ex=440/20 nm, em=485/20 nm) using a fluorescence plate reader. The inhibitory activity is calculated as the reduction of fluorescence with the following formula:
Inhibition(%)={(F(Aβ)−F(Aβ+compound)}/{F(Aβ)−F(solvent−compound)}×100.
The IC50s are calculated by a curve-fitting program using the equation given below. The data is obtained from two different experiments in triplicate.
x=concentration of tested compound (M),

Aβ (1-40) = target: T3, Aβ (1-40) (Homo sapiens, UniProt P05067); assay: BASST (Beta-Amyloid Self-Seeding, ThioflavinT), inhibitors of self-seeded amyloid fibril growth; conditions: 30 μM soluble Aβ(1-40), pH 7.5, 37° C. for 3 to 5 hours, thioflavin T fluorescence
T3 construct: Soluble Aβ (1-40)—2.2 mg/mL in deionized H2O
Experimental: 2. BASST (Beta-Amyloid Self-Seeding, ThioflavinT)
An assay for inhibitors of self-seeded arnyloid fibril growth
as §1
Soluble Aβ (1-40)—2.2 mg/mL in deionized H2O (is stored in aliquots at −20° C.; is kept on ice when thawed) will self-seed after 1 week storage. Typically, the solution is stored until no lag phase is seen in the assay.
Final assay conditions: 30 μM soluble Aβ(1-40) in deionized water in assay buffer. Compound to be tested is dissolved in DMSO, typically 5 to 50 mM stock, such that the final concentration of DMSO is <1% v/v in the assay.
Assay: Reaction mixture for 50 assays (on ice) is comprised of 1 μL of soluble Aβ(1-40)+13.5 μL assay buffer per assay. The following are the amounts of the components of the reaction mixture that result in each of the 50 assay wells.
1) The reaction mix above is prepared by mixing the components and storing on ice.
2) 14.5 μL of reaction mixture is pipetted into each of 50 wells of a polystyrene U-bottom, 96-well microtiter plate (Corning 25881-96) on ice.
as §2
4) The plate with aluminum film is sealed and incubated for 10 minutes on ice.
as §3
6) The aluminum film is removed and 250 μL/well of 5 μM thioflavin T (ThT) [T-3516, Sigma-Aldrich] is added in 50 mM glycine-NaOH, pH 8.5. Fluorescence is read on a plate reader (ex=440 nm/20 nm; em=485 nm/20 nm) within 5 minutes.

T2 sequence (P05067 672-713): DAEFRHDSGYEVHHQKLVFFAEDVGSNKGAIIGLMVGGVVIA
T1 sequence (P05067 672-711): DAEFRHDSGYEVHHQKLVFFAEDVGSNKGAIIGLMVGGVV
T3 sequence (P05067 672-711): as above

CN(C)c1ccc(/C=C2\N=C(c3ccccc3)OC2=O)c2ccccc12 [compound 6, 4-(4-Dimethylamino-naphthalen-1-ylmethylene)-2-phenyl-4H-oxazol-5-one]
IC50 (Aβ(1-40) peptide; read-out: BASSR (IC50 = μM)): > 100 µM
IC50 (Aβ (1-42)): 14.5 µM
IC50 (Aβ (1-40); read-out: BASST (IC50 = μM)): 2.6 µM

O=C1OC(c2ccccc2)=N/C1=C\c1ccc(F)c(C(F)(F)F)c1 [compound 14, 4-(4-Fluoro-3-trifluoromethyl-benzylidene)-2-phenyl-4H-oxazol-5-one]
IC50 (Aβ(1-40) peptide; read-out: BASSR (IC50 = μM)): > 100 µM
IC50 (Aβ (1-40); read-out: BASST (IC50 = μM)): > 100 µM

COc1c(/C=C2\N=C(c3ccccc3)OC2=O)cc([N+](=O)[O-])cc1[N+](=O)[O-] [compound 3, 4-(2-Methoxy-3,5-dinitro-benzylidene)-2-phenyl-4H-oxazol-5-one]
IC50 (Aβ(1-40) peptide; BASSR (IC50 = μM)): > 100 µM
IC50 (Aβ (1-40); BASST (IC50 = μM)): 7 µM

O=C1OC(c2ccc([N+](=O)[O-])cc2)=N/C1=C\c1ccc(Cl)c(Cl)c1 [compound 13, 4-(3,4-Dichloro-benzylidene)-2-(4-nitro-phenyl)-4H-oxazol-5-one]
IC50 (Aβ(1-40) peptide; read-out: BASSR (IC50 = μM)): 70 µM
IC50 (Aβ (1-40); read-out: BASST (IC50 = μM)): 90 µM

O=C1OC(c2ccccc2)=N/C1=C\c1ccc2c(c1)OCO2 [compound 2, 4-1,3-Benzodioxol-5-ylmethylene-2-phenyl-4H-oxazol-5-one]
IC50 (Aβ(1-40) peptide; read-out: BASSR (IC50 = μM)): 21 µM
IC50 (Aβ (1-42)): > 100 µM

COc1ccc(/C=C2\N=C(c3ccccc3I)OC2=O)cc1OC [compound 10, 4-(3,4-Dimethoxy-benzylidene)-2-(2-iodo-phenyl)-4H-oxazol-5-one]
IC50 (Aβ(1-40) peptide; read-out: BASSR (IC50 = μM)): > 100 µM
IC50 (Aβ (1-40); read-out: BASST (IC50 = μM)): 15 µM

Cc1ccc(/C=C2\N=C(c3ccccc3)OC2=O)cc1C [compound 12, 4-(3,4-Dimethyl-benzylidene)-2-phenyl-4H-oxazol-5-one]
IC50 (Aβ(1-40) peptide; read-out: BASSR (IC50 = μM)): > 100 µM

O=C1OC(c2ccccc2)=N/C1=C\c1ccc(Cl)c(Cl)c1 [compound 11, 4-(3,4-Dichloro-benzylidene)-2-phenyl-4H-oxazol-5-one]
IC50 (Aβ(1-40) peptide; read-out: BASSR (IC50 = μM)): 21 µM
IC50 (Aβ (1-40); read-out: BASST (IC50 = μM)): 30 µM

COc1cccc(/C=C2\N=C(c3ccccc3)OC2=O)c1 [compound 8, 4-(3-Methoxy-benzylidene)-2-phenyl-4H-oxazol-5-one]
IC50 (Aβ(1-40) peptide; read-out: BASSR (IC50 = μM)): > 100 µM
IC50 (Aβ (1-40); read-out: BASST (IC50 = μM)): 7 µM

COc1ccc(C2=N/C(=C\c3ccccc3)C(=O)O2)cc1 [compound 5, 4-Benzylidene-2-(4-methoxy-phenyl)-4H-oxazol-5-one]
IC50 (Aβ(1-40) peptide; read-out: BASSR (IC50 = μM)): 16 µM

COc1ccc(/C=C2\N=C(c3ccccc3)OC2=O)cc1OC [compound 4, 5(4H)-Oxazolone,4-[(3,4-dimethoxyphenyl)methylene]-2-phenyl-]
IC50 (Aβ(1-40) peptide; read-out: BASSR (IC50 = μM)): 7 µM and 8 µM
IC50 (Aβ (1-42)): > 100 µM
IC50 (Aβ (1-40); read-out: BASST (IC50 = μM)): > 100 µM

O=C1OC(c2ccccc2)=N/C1=C\c1ccccc1 [compound 1, 4-Benzylidene-2-phenyl-4H-oxazol-5-one]
IC50 (Aβ(1-40) peptide; read-out: BASSR (IC50 = μM)): > 100 µM
IC50 (Aβ (1-40); read-out: BASST (IC50 = μM)): > 100 µM

CCCN(CCC)c1ccc(/C=C2/N=C(c3ccccc3)OC2=O)cc1 [compound 7, 4-(4-Dipropylamino-benzylidene)-2-phenyl-4H-oxazol-5-one]
IC50 (Aβ(1-40) peptide; read-out: BASSR (IC50 = μM)): > 100 µM
IC50 (Aβ (1-42)): 2.42 µM and 2.36 µM
IC50 (Aβ (1-40); read-out: BASST (IC50 = μM)): 8 µM

COc1cccc(/C=C2\N=C(c3ccc([N+](=O)[O-])cc3)OC2=O)c1OC [compound 9, 4-(2,3-Dimethoxy-benzylidene)-2-(4-nitro-phenyl)-4H-oxazol-5-one]
IC50 (Aβ(1-40) peptide; read-out: BASSR (IC50 = μM)): > 100 µM
IC50 (Aβ (1-40); read-out: BASST (IC50 = μM)): 12 µM
